Values after ≈ are worked out from the molar mass of the structure shown.

Broadly, the IC50 is the concentration at which inhibition is half-maximal. Read a low IC50 as higher potency.

For the test, the system named is P388. The test is described as follows: Cytotoxicity against mouse P388 cells. The test is classed as functional, cell-based.

Regarding `COc1ccc(C[C@H]2C(=O)N[C@@H](C)C(=O)N(C)[C@H]3Cc4ccc(cc4)Oc4cc(ccc4OC)C[C@@H](C(=O)N[C@H](C)C(=O)N[C@@H](C)C(=O)N2C)N(C)C3=O)cc1`, the half-inhibitory concentration (IC50) turned out to be 0.0043 µg/mL (≈ 0.00558 µM).
For the compound `COc1ccc(C[C@H]2C(=O)N[C@@H](C)C(=O)N(C)[C@H]3Cc4ccc(cc4)Oc4cc(ccc4OC)C[C@@H](C(=O)N[C@H](C)C(=O)N[C@@H](C)C(=O)N2C)N(C)C3)cc1`, the 50% inhibitory concentration (IC50) is 5 µg/mL (≈ 6.61 µM).

Source of the values: ChEMBL document CHEMBL2016486, “Synthesis of [Tyr-5-Ψ(CH2NMe)-Tyr-6]RA-VII, a reduced peptide bond analogue of RA-VII, an antitumor bicyclic hexapeptide” (Bioorg Med Chem Lett, 2012).
